In patent US20250188110A1, “SPECIFIC SMALL MOLECULE INHIBITORS THAT BLOCK KMT9 METHYLTRANSFERASE ACTIVITY AND FUNCTION” (ALBERT-LUDWIGS-UNIVERSITÄT FREIBURG, priority 2021, published 2025):
Like-named read-outs stand apart in the source and are kept apart here.

Columns and labels:
KMT9 [1] = target: T1, KMT9 (Homo sapiens, UniProt Q9Y5N5); assay: KMT9 methyltransferase inhibition assay, MTaseGlo luminescence (from entry 155); format: biochemical; conditions: 100 nM KMT9, 5 μM ETF1, 1 μM SAM
T1 sequence (Q9Y5N5 1-214): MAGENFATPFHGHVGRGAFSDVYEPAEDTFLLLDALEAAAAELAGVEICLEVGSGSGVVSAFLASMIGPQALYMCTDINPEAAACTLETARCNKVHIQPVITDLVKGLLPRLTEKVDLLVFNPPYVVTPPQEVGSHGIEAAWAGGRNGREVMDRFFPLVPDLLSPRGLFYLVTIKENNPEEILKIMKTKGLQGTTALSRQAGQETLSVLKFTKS
T1 sequence (Q9UI30 1-120 isoform Q9UI30-2 partner): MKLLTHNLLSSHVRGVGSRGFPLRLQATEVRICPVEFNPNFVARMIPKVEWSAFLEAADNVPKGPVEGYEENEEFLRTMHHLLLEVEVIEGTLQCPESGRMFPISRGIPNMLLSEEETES
Experimental: For the compounds from entry 155 on in Table 1, the following procedure was used to determine IC50 values: The assay was carried out in white, opaque 384-well OptiPlates (PerkinElmer). For IC50 determination, a 2.5x substrate mix (final assay concentrations: 5 μM ETF1, 1 μM SAM and 1x MTaseGlo Reagent), a 2.5x KMT9 solution (final assay concentration 100 nM) and a 5x inhibitor stock 1:1 dilution series (concentration according to the desired range; dilution series was prepared in assay buffer containing 10% DMSO to obtain a final DMSO concentration of 2% in the assay) were prepared. 2 μL of 5x inhibitor stock and 4 μL of 2.5x KMT9 were pipetted, the plate was spun down at 700 rpm for 1 min using a Hettich UNIVERSAL 320 centrifuge and incubated at room temperature (around 25° C.) for 15 min. The reaction was initiated by adding 4 μL of 2.5x substrate mix, the plate was spun down as described before and incubated at 30° C. for 2 h. Afterwards, 10 μL of 2× MTaseGlo Detection solution was added, the plate was centrifuged as described above and incubated for 60 min at room temperature. Luminescence was measured using a PerkinElmer EnVision 2102 Multilabel Reader. Calculation of inhibition and data fitting was carried out as for entries 1-154. described above.
For the results of the methyltransferase inhibition assay shown as “Inhibition” in Table 1, “I” represents an IC50 less than 0.1 μM, “II” represents an IC50 equal or higher than 0.1 μM and less than 1 μM, “III” represents an IC50 equal or higher than 1 µM and less than 10 µM and “IV” represents an IC50 equal or higher than 10 µM

KMT9 [2] = target: T1, KMT9; assay: Microscale thermophoresis (MST) KMT9 binding
Outline: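 His-tagged KMT9 (20 nM), RED-Tris-NTA labelled, titrated with varying compound concentrations in 25 mM HEPES pH 7.5, 100 mM NaCl, 1 mM DTT, 0.05% Tween. MST at 40% MST and 100% LED power, Nano-RED excitation; Kd binned A ≤10 nM, B 10–100, C 100–1000, D >1000 nM.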

KMT9 [3] = target: T1, KMT9; assay: KMT9 thermal shift assay (SyproOrange); format: binding; conditions: 500 µM compound
Outline: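 Recombinant KMT9 was incubated with compound and SyproOrange at 25° C in 50 mM BTP pH 8.5, 1 mM MgCl2, 1 mM DTT. It was then heated from 20° C to 95° C at 1° C per 15 s with fluorescence read each step. Tm came from a Boltzmann sigmoidal fit; ΔTm relative to DMSO control, binned in 5 K ranges.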

KMT9 [4] = target: T1, KMT9; assay: KMT9 methyltransferase inhibition assay, 3H-SAM scintillation (entries 1-154); format: biochemical; conditions: entries 1-154: 3H-SAM assay, 25 nM KMT9, 5 μM ETF1
Outline: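 Final 25 nM KMT9, 5 μM ETF1 (residues 140-275), 0.3 μM 3H-SAM plus 0.7 μM SAM in pH 8.5 BTP buffer, 2 h at 30° C. TCA-quenched, filter-washed, methylation counted by scintillation; % inhibition vs DMSO and no-enzyme controls, IC50 from four-parameter fit.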

[5] = MTaseGlo procedure (entries from 155), read-out: Inhibition (IC50)
[6] = His-tag labelled KMT9 20 nM, read-out: MST (Kd)
[7] = 2 μM KMT9, read-out: Thermal shift (ΔTm)
[8] = from entry 155: MTaseGlo assay, read-out: Inhibition
[9] = microscale thermophoresis, His-tag labelled KMT9 (20 nM), read-out: MST
[10] = ΔTm, 2 μM KMT9, 5X SO, read-out: Thermal shift

| Kd (KMT9 [2]; [9]) | ΔTm at 500 µM (KMT9 [3]; [10]) | IC50 (KMT9 [4]) | SMILES | other results |
| --- | --- | --- | --- | --- |
| 0.1 to 1 µM | 15 to 20 °C |  | Nc1ncnc2c1c(-c1nc(Cc3ccccc3)cs1)cn2[C@@H]1C[C@H]([C@@H]2CCCNC2)[C@@H](O)[C@H]1O (single isomer, unassigned) [Compound 593R] | IC50 (KMT9 [1]; [8]): 1 to 10 µM |
| 0.01 to 0.1 µM | 15 to 20 °C |  | Nc1ncnc2c1c(-c1nc(Oc3ccccc3)cs1)cn2[C@@H]1C[C@H](CNCCCNCCc2ccccc2)[C@@H](O)[C@H]1O [Compound 607, (1R,2S,3R,5R)-3-(4-amino-5-(4-phenoxythiazol-2-yl)-7H-pyrrolo[2,3-d]pyrimidin-7-yl)-5-(((3-(phenethylamino)propyl)amino)methyl)cyclopentane-1,2-diol] | IC50 (KMT9 [1]; [8]): 0.1 to 1 µM |
| > 1 µM | ≤ 10 °C |  | Nc1ncnc2c1c(-c1nccs1)cn2[C@@H]1C[C@H](c2ccccc2)[C@@H](O)[C@H]1O [Compound 395, (1R,2S,3R,5R)-3-(4-amino-5-(thiazol-2-yl)-7H-pyrrolo[2,3-d]pyrimidin-7-yl)-5-phenylcyclopentane-1,2-diol] | IC50 (KMT9 [1]; [8]): > 10 µM |
| 0.01 to 0.1 µM | 15 to 20 °C | 0.1 to 1 µM | Nc1ncnc2c1c(-c1nc(Cc3ccccc3)cs1)cn2[C@@H]1C[C@H](CNCCCNCCc2ccccc2)[C@@H](O)[C@H]1O [Compound 605, (1R,2S,3R,5R)-3-(4-Amino-5-(4-benzylthiazol-2-yl)-7H-pyrrolo[2,3-d]pyrimidin-7-yl)-5-(((3-(phenethylamino)propyl)amino)methyl)cyclopentane-1,2-diol] |  |
| 0.1 to 1 µM | 10 to 15 °C | 1 to 10 µM | Nc1ncnc2c1c(C1CCOCC1)cn2[C@@H]1C[C@H](CNCCCNCCc2ccccc2)[C@@H](O)[C@H]1O [479 (353), (1R,2S,3R,5R)-3-(4-Amino-5-(tetrahydro-2H-pyran-4-yl)-7H-pyrrolo[2,3-d]pyrimidin-7-yl)-5-(((3-(phenethylamino)propyl)amino)methyl) cyclopentane-1,2-diol] |  |
| 0.1 to 1 µM | 15 to 20 °C | 0.1 to 1 µM | Nc1ncnc2c1c(-c1ccncn1)cn2[C@@H]1C[C@H](CNCCCNCCc2ccccc2)[C@@H](O)[C@H]1O [471 (345), (1R,2S,3R,5R)-3-(4-Amino-5-(pyrimidin-4-yl)-7H-pyrrolo[2,3-d]pyrimidin-7-yl)-5-(((3-(phenethylamino)propyl)amino)methyl) cyclopentane-1,2-diol] |  |

The remaining lines, values behind:

| SMILES | Kd (KMT9 [2]; [9]) | ΔTm at 500 µM (KMT9 [3]; [10]) | IC50 (KMT9 [4]) | other results |
| --- | --- | --- | --- | --- |
| Nc1nc(Cl)nc2c1ccn2[C@@H]1C[C@H](c2ccc(=O)[nH]c2)[C@@H](O)[C@H]1O [Compound 590, 5-[(1R,2R,3S,4R)-4-{4-Amino-2-chloropyrrolo[2,3-d]pyrimidin-7-yl}-2,3-dihydroxycyclopentyl]-1H-pyridin-2-one] |  |  |  | IC50 (KMT9 [1]; [5]): 1 to 10 µM; Kd (KMT9 [2]; [6]): 0.1 to 1 µM; ΔTm at 500 µM (KMT9 [3]; [7]): ≤ 10 °C |
| Nc1nc(Cl)nc2c1ccn2[C@@H]1C[C@H](c2cc[nH]c(=O)c2)[C@@H](O)[C@H]1O [Compound 662, 4-[(1R,2R,3S,4R)-4-{4-Amino-2-chloropyrrolo[2,3-d]pyrimidin-7-yl}-2,3-dihydroxycyclopentyl]-1H-pyridin-2-one] |  |  |  | IC50 (KMT9 [1]; [5]): 1 to 10 µM; Kd (KMT9 [2]; [6]): 0.1 to 1 µM; ΔTm at 500 µM (KMT9 [3]; [7]): ≤ 10 °C |
| O[C@@H]1[C@H](O)[C@@H](C2CCCN(CC3CC3)C2)C[C@H]1n1cc(-c2nc(Cc3ccccc3)cs2)c2cnc(Cl)nc21 (stereo partly drawn) [Compound 516, (1R,2S,3R,5R)-3-(5-(4-benzylthiazol-2-yl)-2-chloro-7H-pyrrolo[2,3-d]pyrimidin-7-yl)-5-(1-(cyclopropylmethyl)piperidin-3-yl)cyclopentane-1,2-diol] |  |  |  | IC50 (KMT9 [1]; IC50 class, MTaseGlo procedure (entries from 155 on), read-out: Inhibition): 1 to 10 µM; Kd (KMT9 [2]; His-tag labelled KMT9 20 nM, Kd class, read-out: MST): 0.1 to 1 µM |
| CNc1ncnc2c1ccn2[C@@H]1C[C@H](CN2CCC23CCCNC3)[C@@H](O)[C@H]1O (stereo partly drawn) [447 (319), (1S,2R,3R,5R)-3-{1,6-Diazaspiro[3.5]nonan-1-ylmethyl}-5-[4-(methylamino)pyrrolo[2,3-d]pyrimidin-7-yl]cyclopentane-1,2-diol] | > 1 µM | ≤ 10 °C | > 10 µM |  |
| CNc1ncnc2c1ccn2[C@@H]1C[C@H](CNCCCNCCc2ccccc2)[C@@H](O)[C@H]1O [291 (188), (1R,2S,3R,5R)-3-(4-(methylamino)-7H-pyrrolo[2,3-a]pyrimidin-7-yl)-5-(((3-(phenethylamino)propyl)amino)methyl) cyclopentane-1,2-diol] | > 1 µM | 10 to 15 °C | 1 to 10 µM |  |
| Nc1ncnc2c1ncn2[C@@H]1O[C@H](C(=O)NCCCNC(=O)Nc2ccccc2)[C@@H](O)[C@H]1O [684 (202), (2S,3S,4R,5R)-5-(6-amino-9H-purin-9-yl)-3,4-dihydroxy-N-(3-(3-phenylureido)propyl) tetrahydrofuran-2-carboxamide] | > 1 µM | ≤ 10 °C | > 10 µM |  |
| O=C1CCc2cn([C@@H]3C[C@H](CNCCCNCCc4ccccc4)[C@@H](O)[C@H]3O)c3ncnc(c23)N1 [Compound 627, 2-((1R,2S,3R,4R)-2,3-dihydroxy-4-(((3-(phenethylamino)propyl)amino)methyl)cyclopentyl)-2,6,8,9-tetrahydro-7H-2,3,5,6-tetraazabenzo[cd]azulen-7-one] | 0.1 to 1 µM | ≤ 10 °C | > 10 µM |  |
| CNc1ncnc2c1ccn2[C@@H]1C[C@H](CNC(=O)C2CCCNC2)[C@@H](O)[C@H]1O (stereo partly drawn) [418 (289), N-(((1R,2R,3S,4R)-2,3-dihydroxy-4-(4-(methylamino)-7H-pyrrolo[2,3-d]pyrimidin-7-yl)cyclopentyl)methyl) piperidine-3-carboxamide] | > 1 µM | ≤ 10 °C | > 10 µM |  |
| NC[C@H]1O[C@@H](n2cc3c4c(ncnc42)NCCC3)[C@H](O)[C@@H]1O [416 (287), (2R,3S,4R,5R)-2-(aminomethyl)-5-(6,7,8,9-tetrahydro-2H-2,3,5,6-tetraazabenzo[cd]azulen-2-yl) tetrahydrofuran-3,4-diol] | > 1 µM | ≤ 10 °C | > 10 µM |  |
| CNCCC(=O)N(C)C[C@H]1C[C@@H](n2ccc3c(NC)ncnc32)[C@H](O)[C@@H]1O [417 (288), N-(((1R,2R,3S,4R)-2,3-dihydroxy-4-(4-(methylamino)-7H-pyrrolo[2,3-d]pyrimidin-7-yl)cyclopentyl)methyl)-N-methyl-3-(methylamino)propanamide] | > 1 µM | ≤ 10 °C | > 10 µM |  |
| Nc1ncnc2c1c(-c1ccccc1)cn2[C@@H]1C[C@H](CNCCCNCCc2ccccc2)[C@@H](O)[C@H]1O [466 (340), (1R,2S,3R,5R)-3-{4-amino-5-phenylpyrrolo[2,3-d]pyrimidin-7-yl}-5-[({3-[(2-phenylethyl)amino]propyl}amino)methyl]cyclopentane-1,2-diol] | 0.1 to 1 µM | 10 to 15 °C | 0.1 to 1 µM |  |
| CNc1ncnc2c1ccn2[C@@H]1C[C@H](CN(CCCN)c2cn[nH]c2Br)[C@@H](O)[C@H]1O [Compound 606, (1S,2R,3R,5R)-3-{[(3-Aminopropyl)(3-bromo-2H-pyrazol-4-yl)amino]methyl}-5-[4-(methylamino)pyrrolo[2,3-d]pyrimidin-7-yl]cyclopentane-1,2-diol] | > 1 µM | ≤ 10 °C | > 10 µM |  |
